Test results taken from patent US8552161B2, “Saponin compounds, methods of preparation thereof, use thereof and pharmaceutical compositions” (Uniwersytet W Bialymstoku, priority 2009, dated 2013).

Key:
[1] = system: malignant melanoma cell line G-361; assay: Calcein AM cytotoxicity assay, G-361; type: cell-based, human; details: 72 h, means ± SD, three independent experiments in triplicate
Method: (§1) Stock solutions (10 mmol/l) of the tested compounds were prepared by dissolving relevant quantity of the substance in DMSO. […] Calcein AM was obtained from Molecular Probes (Invitrogen Corporation, CA, USA).
(§2) All cell lines were cultured in DMEM medium (Sigma, Mo., USA). Medium was supplemented with 10% heat-inactivated fetal bovine serum, 2 mmol/l L-glutamine and 1% penicillin-streptomycin. The cell lines were maintained under standard cell culture conditions at 37° C. and 5% CO2 in a humid environment. Cells were subcultured twice or three times a week using the standard trypsinization procedure.
(§3) All cell lines were cultured in DMEM medium (Sigma, Mo., USA) supplemented with 10% fetal calf serum, 2 mM glutamine, 100 U/ml penicillin and 100 μg/ml streptomycin, at 37° C. in a fully humidified atmosphere containing 5% CO2. Suspensions of these lines (ca. 1.0×10^5 cells/ml) were placed in 96-well microtitre plates and after 3 h of stabilization the tested compounds were added in serially diluted concentrations. Saponins were dissolved in dimethylsulfoxide (DMSO) before addition to cultures. Control cultures were treated with DMSO alone. The final concentration of DMSO in the reaction mixtures never exceeded 0.6%. Four-fold dilutions of the intended test concentration were added at time zero in 20 μl aliquots to the microtitre plate wells. Usually, each test compound was evaluated at six 4-fold dilutions and in routine testing; the highest well concentration was 50 μM, although this varied in a few cases, depending on the test compound. After 72 h of culture, the cells were incubated with Calcein AM solution (Molecular Probes) for 1 h. The fluorescence of viable cells was quantified using a Fluoroscan Ascent instrument (Microsystems).

[2] = system: lung carcinoma cell line A549; assay: Calcein AM cytotoxicity assay, A549; type: cell-based, human; details: 72 h, means ± SD, three independent experiments in triplicate, read-out: IC50, A 549
Method: as §1, §2, §3

[3] = system: human glioblastoma cell line T98; assay: Calcein AM cytotoxicity assay, T98; type: cell-based; details: 72 h, means ± SD, three independent experiments in triplicate
Method: Stock solutions (10 mmol/l) of the tested compounds were prepared by dissolving relevant quantity of the substance in DMSO. Dulbecco's modified Eagle's medium (DMEM, RPMI 1640, F-12 medium), fetal bovine serum (FBS), L-glutamine, penicillin, streptomycin were purchased from Sigma (MO, USA). Calcein AM was obtained from Molecular Probes (Invitrogen Corporation, CA, USA).
The screening cell lines (T-lymphoblastic leukaemia cell line CEM, breast carcinoma cell line MCF-7, cervical carcinoma cell line HeLa, human glioblastoma cell line T98, human malignant melanoma G-361, human osteogenic sarcoma cell line HOS, carcinomic human alveolar basal epithelial cells A549, human colon carcinoma cells HCT 116 and human fibroblasts BJ) were obtained from the American Type Culture Collection (Manassas, Va., USA). All cell lines were cultured in DMEM medium (Sigma, Mo., USA). Medium was supplemented with 10% heat-inactivated fetal bovine serum, 2 mmol/l L-glutamine and 1% penicillin-streptomycin. The cell lines were maintained under standard cell culture conditions at 37° C. and 5% CO2 in a humid environment. Cells were subcultured twice or three times a week using the standard trypsinization procedure.
as §3, with “Cytotoxic activities of the novel compounds, obtained according to this invention, were tested in vitro against following cancer cell lines: T-lymphoblastic leukemia cell line CEM; breast carcinoma cell line MCF7, lung carcinoma cell line A549, cervical carcinoma cell line HeLa, malignant melanoma cell line G-361, osteosarcoma cell line HOS, human glioblastoma cell line T98, human colon carcinoma cells HCT 116 and normal human fibroblasts BJ. All” for “All”, “(Microsystems). The percentage of surviving cells in each well was calculated from the equation […]=(ODdrug exposed well/mean ODcontrol wells)×100%. The IC50 value, the drug concentration lethal to 50% of the tumour cells, was calculated from the obtained dose-response curves.” for “(Microsystems).”

[4] = system: normal human fibroblasts BJ; assay: Calcein AM cytotoxicity assay, normal fibroblasts BJ; type: cell-based; details: 72 h, means ± SD, three independent experiments in triplicate
Method: as §1, §2, §3

caspase-3/7 in CEM cells = assay: Activity of caspases-3/7 in treated CEM cells (Ac-DEVD-AMC substrate); type: cell-based; details: 24 h, 7.5 μM and 10 μM (FIG. 4)
Method: The CEM cells treated with the novel compounds were harvested by centrifugations and homogenized in an extraction buffer (10 mM KCl, 5 mM HEPES, 1 mM EDTA, 1 mM EGTA, 0.2% CHAPS, inhibitors of proteases, pH 7.4) on ice for 20 min. The homogenates were clarified by centrifugation at 10,000 g for […] at 4° C., the proteins were quantified by the Bradford method and diluted to the same concentration. Lysates were then incubated for 1 h with […] Ac-DEVD-AMC as a substrate (Sigma-Aldrich) in an assay buffer (25 mM PIPES, 2 mM EGTA, 2 mM MgCl2, 5 mM DTT, pH 7.3). For negative controls, the lysates were supplemented with […] Ac-DEVD-CHO as a caspase-3/7 inhibitor (Sigma-Aldrich). The fluorescence of the product was measured using a Fluoroskan Ascent microplate reader (Labsystems) at 346/442 nm (ex/em). Here, we determined the activity of caspase-3/7 in CEM cells exposed to 3, 6 or 7 using a fluorogenic substrate Ac-DEVD-AMC and/or caspase 3/7 inhibitor […]. Cells were treated in a dose-dependent manner with compounds 3 (1; 2.5; 5 μM), 6 (0.1; 0.25; 0.5 μM) and 7 (5; 7.5; 10 μM).

[5] = system: breast carcinoma cell line MCF7; assay: Calcein AM cytotoxicity assay, MCF7; type: cell-based, human; details: Calcein AM assay, 72 h; means ± SD, three independent experiments in triplicate
Method: as §1, §2, §3

C/C=C/C(=O)OC[C@@H](C)[C@@]1(O)[C@@H](O[C@@H]2OC[C@H](O)[C@H](O[C@@H]3OC[C@@H](O)[C@H](O)[C@H]3OC(=O)c3ccc(OC)cc3)[C@H]2OC(C)=O)C[C@H]2[C@@H]3CC=C4C[C@@H](O)CC[C@]4(C)[C@H]3CC[C@@]21C [Compound 7, (20R)-21-O-[(E)-but-2-enoyl]-20-methylpregn-5-ene-3β,16β,17α,21-tetraol 16-O-{2-O-(4-methoxybenzoyl)-β-D-xylopyranosyl-(1→3)-2′-O-acetyl-α-L-arabinopyranoside}]
IC50 [1]: 890 ± 90 nM | IC50 [2]: 550 ± 200 nM | IC50 [3]: 940 ± 20 nM | IC50 [4]: 230 ± 80 nM | activity of caspase-3/7 compared with the untreated control (caspase-3/7 in CEM cells): threefold increase | IC50 [5]: 840 ± 510 nM
